Test results reported in patent US20090239920A1, “PHARMACEUTICAL FORMULATIONS OF AN ANHYDRATE CRYSTAL FORM OF 2-(3-FLUORO-4-HYDROXYPHENYL)-7-VINYL-1,3-BENZOXAZOL-5-OL” (WYETH, priority 2006, published 2009).

Test: Crystal form conversion of Form D suspended and stirred in solvent at room temperature for seven days
Type: physicochemical
Source text: The anhydrate crystal form (Form D) can be converted to other crystal forms under suitable conditions. […] 6, 2006).

## C=Cc1cc(O)cc2nc(-c3ccc(O)c(F)c3)oc12 [Form D, 2-(3-fluoro-4-hydroxyphenyl)-7-vinyl-1,3-benzoxazol-5-ol]
Suspended and stirred in ethanol or acetone at room temperature for seven days
  crystal form conversion (polymorphic stability): another anhydrate crystal form is obtained
Suspended and stirred in methanol at room temperature for seven days
  crystal form conversion (polymorphic stability): another anhydrate crystal form is obtained
Suspended and stirred in water at room temperature for seven days
  crystal form conversion (polymorphic stability): most of the anhydrate crystal form is converted to a hydrate crystal form
